Assay: xn = mol fraction of the nth substance listed
Conditions: 100 kPa, Liquid; for mass density: Vibrating tube method; for speed of sound: Frequency=5 MHz, Pulse-echo method

OCCOCCOCCO [triethylene glycol] + O
Conditions | mass density [kg/m3] | speed of sound [m/s]
303.15 K, x1 = 0.04979 | 1041.3 | –
303.15 K, x1 = 0.06996 | 1054 | –
303.15 K, x1 = 0.09424 | 1066.08 | –
303.15 K, x1 = 0.1481 | 1084.03 | –
303.15 K, x1 = 0.2006 | 1094.18 | –
303.15 K, x1 = 0.2502 | 1100.12 | –
303.15 K, x1 = 0.2988 | 1103.95 | –
303.15 K, x1 = 0.3492 | 1106.7 | –
303.15 K, x1 = 0.3925 | 1108.43 | –
303.15 K, x1 = 0.4502 | 1110.16 | –
303.15 K, x1 = 0.4877 | 1111.03 | –
303.15 K, x1 = 0.5004 | 1111.29 | –
303.15 K, x1 = 0.5739 | 1112.54 | –
303.15 K, x1 = 0.58 | 1112.63 | –
303.15 K, x1 = 0.6465 | 1113.45 | –
303.15 K, x1 = 0.651 | 1113.5 | –
303.15 K, x1 = 0.7008 | 1113.98 | –
303.15 K, x1 = 0.7471 | 1114.36 | –
303.15 K, x1 = 0.7677 | 1114.51 | –
303.15 K, x1 = 0.82 | 1114.86 | –
303.15 K, x1 = 0.8623 | 1115.11 | –
303.15 K, x1 = 0.8792 | 1115.2 | –
303.15 K, x1 = 0.8975 | 1115.3 | –
303.15 K, x1 = 0.9203 | 1115.41 | –
303.15 K, x1 = 0.9514 | 1115.57 | –
303.15 K, x1 = 0.9692 | 1115.66 | –
303.15 K, x1 = 1 | 1115.81 | –
308.15 K, x1 = 0.000704 | – | 1522.8
308.15 K, x1 = 0.002176 | – | 1528.1
308.15 K, x1 = 0.005721 | – | 1540.6
308.15 K, x1 = 0.01035 | – | 1556
308.15 K, x1 = 0.0107 | 1005.7 | –
308.15 K, x1 = 0.01513 | – | 1570.7
308.15 K, x1 = 0.02047 | 1015.27 | –
308.15 K, x1 = 0.02389 | – | 1595
308.15 K, x1 = 0.03177 | – | 1614.1
308.15 K, x1 = 0.03972 | 1031.49 | –
308.15 K, x1 = 0.0428 | – | 1637
308.15 K, x1 = 0.04979 | 1038.74 | –
308.15 K, x1 = 0.05056 | – | 1650.6
308.15 K, x1 = 0.05793 | – | 1661.8
308.15 K, x1 = 0.06447 | – | 1670.6
308.15 K, x1 = 0.06996 | 1051.15 | –
308.15 K, x1 = 0.07343 | – | 1680.8
308.15 K, x1 = 0.08342 | – | 1690
308.15 K, x1 = 0.09076 | – | 1695.5
308.15 K, x1 = 0.09424 | 1062.94 | –
308.15 K, x1 = 0.1028 | – | 1702.6
308.15 K, x1 = 0.1137 | – | 1707.1
308.15 K, x1 = 0.1189 | – | 1708.7
308.15 K, x1 = 0.1229 | – | 1709.7
308.15 K, x1 = 0.1231 | – | 1709.7
308.15 K, x1 = 0.1269 | – | 1710.5
308.15 K, x1 = 0.1308 | – | 1711.1
308.15 K, x1 = 0.1403 | – | 1712.1
308.15 K, x1 = 0.1427 | – | 1712.2
308.15 K, x1 = 0.1481 | 1080.5 | 1712.3
308.15 K, x1 = 0.1594 | – | 1711.9
308.15 K, x1 = 0.1659 | – | 1711.3
308.15 K, x1 = 0.1738 | – | 1710.3
308.15 K, x1 = 0.1858 | – | 1708.3
308.15 K, x1 = 0.1969 | – | 1706
308.15 K, x1 = 0.2006 | 1090.47 | –
308.15 K, x1 = 0.2172 | – | 1701
308.15 K, x1 = 0.2467 | – | 1692.8
308.15 K, x1 = 0.2502 | 1096.32 | –
308.15 K, x1 = 0.2825 | – | 1682.6
308.15 K, x1 = 0.2988 | 1100.12 | –
308.15 K, x1 = 0.3259 | – | 1670.8
308.15 K, x1 = 0.3492 | 1102.85 | –
308.15 K, x1 = 0.3691 | – | 1660.3
308.15 K, x1 = 0.3925 | 1104.57 | –
308.15 K, x1 = 0.4352 | – | 1646.2
308.15 K, x1 = 0.4502 | 1106.3 | –
308.15 K, x1 = 0.5067 | – | 1632.7
308.15 K, x1 = 0.6111 | – | 1615.9
308.15 K, x1 = 0.7783 | – | 1598.5
308.15 K, x1 = 0.8912 | – | 1591.9
308.15 K, x1 = 0.9608 | – | 1587.5
308.15 K, x1 = 1 | – | 1584.6

From the NIST ThermoML archive (doi:10.1016/j.jct.2015.05.024)
